Measured values as given in patent US20050074485A1, “Anti-inflammatory/anti-microbial peptides for use in dialysis” (priority 2003, published 2005).
“Also recorded” adds a separate entry of the source. Where a SMILES comes first, the peptide text is derived from it. Bridges are numbered along the chain shown (N, C = ends). Roman numbers before positions name the chains, in order. Where no end group is shown, it is not given here. [ ]: non-standard residue; d: D form.

Tests used:
[1] = in vivo
[2] = in vivo; remark: listed apart in the source
[3] = system: C. albicans (clinical isolate); assay: C. albicans viability by colony forming units; format: cell-based, Candida albicans; settings: 10^−6 M
Protocol: C. albicans (clinical isolate) were obtained from the collection of the Department of Microbiology, Ospedale Maggiore di Milano. C. albicans were maintained on Sabouraud's agar slants and periodically transferred to Sabouraud's agar plates and incubated for 48 hours at 28° C. To prepare stationary growth phase yeast, a colony was taken from the agar plate and transferred into 30 ml Sabouraud-dextrose broth and incubated for 72 hours at 32° C. Cells were centrifuged at 100×g for 10 minutes and the pellet was washed twice with distilled water. Cells were counted and suspended in Hank's balanced salt solution (“HBSS”) to the desired concentration. […] C. albicans (I×10^6/ml in HBSS) was incubated in the presence or absence of α-MSH [1-13], KPV, (SEQ. ID NO.1) or the (“KPV dimer”) at concentrations in the range of 10^−15 to 10^−4M for 2 hours at 37° C. Cells were then washed in cold distilled water and diluted with HBSS to a concentration of 100 organisms/ml. One ml aliquots were dispensed on blood agar plates and incubated for 48 hours at 37° C. Organism viability was estimated from the number of colonies formed.
Fluconazole is a well established antifungal agent. […] The peptides and fluconazole were tested in concentrations of 10^−6 M. There were at least six replicates for each concentration of peptide.

[4] = system: S. aureus; assay: Urokinase-induced growth enhancement of S. aureus; format: cell-based, Staphylococcus aureus; settings: 10^−6 M, recombinant human urokinase 500 U, four hours at 37° C.
Protocol: In this experiment, the influence of α-MSH on urokinase-induced growth-enhancement is determined. […] (SEQ. ID NO.1) at 10^−6 M. Appropriate dilutions of S. aureus were dispensed on agar plates and colonies counted after 24 hours incubation at 37° C.

[5] = system: Staphylococcus aureus (ATCC29213); assay: S. aureus viability by colony forming units; format: cell-based; settings: 10^−15 to 10^−4M, 2 hours at 37° C.
Protocol: Staphylococcus aureus (ATCC29213) was obtained from the collection of the Department of Microbiology, Ospedale Maggiore di Milano. S. aureus (1×10^6/ml in HBSS) was incubated in the presence or absence of α-MSH [1-13] (SEQ ID NO: 6), α-MSH [11-13] (SEQ. ID NO. 1) or the KPV dimer (SEQ ID NO: 4) at concentrations in the range of 10^−15 to 10^−4M for 2 hours at 37° C. S. aureus were then washed in cold distilled water and diluted with HBSS to a concentration of 100 organisms/ml. One ml aliquots were dispensed on blood agar plates and incubated for 24 hours at 37° C. Organism viability was estimated from the number of colony forming units.

[6] = system: Enterococcus faecalis (MDR) (ATCC 51299); assay: Broth dilution turbidity test of growth inhibition; format: cell-based
Protocol: (§1) These organisms were subcultured onto blood agar plates and incubated for 16-24 hours at 35±2° C. An inoculated needle or loop was touched to each of four or five well isolated colonies of the same morphological type, and the inoculum inoculated into 5 mL of MHB.
(§2) The broth cultures were then allowed to incubate at 35±2° C. until turbidity appeared (usually 2 to 5 hours). […] This turbidity is half the density of a McFarland number one standard and is often referred to as McFarland 0.5 standard (approx. 1.5×10^8 CFU/mL). This turbidity standard was agitated on a vortex mixer immediately before use. Sealed tubes were stored in the dark at room temperature and replaced if the inocula are shown (by count) to be aberrant.
(§3) The broth culture was further diluted to 1:200 in MHB broth (to obtain a final concentration of 10^5 to 10^6 CFU/mL). To determine the initial concentration of the organism in the above solution, serial dilutions were performed 1:10 in MHB four times to achieve a final dilution of 10^−4. Aliquots 1.0 mL from each of the dilutions were placed in duplicate into sterile petri dishes. Approximately 15 to 20 mL of tempered (45±2° C.) MCTA agar media was added. The plates were incubated overnight at 35±2° C. for 16-20 hours. Following the incubation period, the colonies were counted.
(§4) These dilutions were developed according to the procedure: for each drug substance label 9 flasks (10 ml Volumetric) 1 through 9; for each sample add 3 mL of deionized (“DI”) water to a 10 mL volumetric flask; then transfer the amount of anti-microbial and anti-inflammatory peptides as specified below in Table 2; record the actual amount transferred in the laboratory notebook; and add the remaining amount of DI water to bring up to volume of 10 mL.
(§5) 100 μL of the anti-microbial and anti-inflammatory peptide solution from each of the flasks was then added to the correspondingly labeled well; to well number 10 add 100 μL sterile DI Water; and to all ten wells add 100 μL of inoculum created previously.
(§6) The procedure was repeated for each of the seven microorganisms tested.
(§7) Each well was tested for turbidity, as an indicator of growth.

[7] = system: Streptococcus pyogenes Group A (ATCC 19615); assay: Broth dilution turbidity test of growth inhibition; format: cell-based
Protocol: as §1, §2, §3, §4, §5, §6, §7

[8] = system: HIV transcription; settings: 10^−5M; PMA (1 ng/mL) stimulated UI cells, 24 h
Excerpt: Total RNA was extracted by the guanidine thiocyanate phenol method using an RNA isolation kit (Tripure, Boehringer Mannheim, Indianapolis, Ind.), following the manufacturer's instructions. Ten ng of total RNA were separated by 0.8% agarose/formaldehyde gel electrophoresis and transferred onto nylon membrane. The filters were baked and hybridized for 18 hr with ^32P-labeled HIV-full length probe (kind gift of L. Turchetto and E. Vicenzi, S. Raffaele Hospital, Milan, Italy). The radiolabeling reaction was performed using a DNA labeling kit (Ready-to-go, Pharmacia Biotech, San Francisco, Calif.). Filters were washed and exposed to X-ray film for 5 days. The labeled probe was removed by washing at 80° C. in 0.1×SSC containing 0.1% sodium dodecyl sulphate and then rehybridized with (^32P-labeled glyceraldehyde-3-phosphate dehydrogenase) (GAPDH) cDNA probe. Densitometric analysis was performed using ImageMaster VDS 3.0 software (Pharmacia Biotech) and results were expressed as density units.

[9] = Hiltz et al. 1991; cited from earlier work
[10] = cited from earlier work; for antipyretic potency relative to α-MSH (11-13): centrally administered, rabbit, Deeter et al. 1989
[11] = system: Candida albicans (ATCC 10231); assay: Broth dilution turbidity test of growth inhibition; format: cell-based; settings: turbidity after 16-20 hours at 35±2° C.
Protocol: as §1, §2, §3, §4, §5, §6, §7

[12] = system: Staphylococcus epidermidis (ATCC 12228); assay: Broth dilution turbidity test of growth inhibition; format: cell-based
Protocol: The following microorganisms were used in the Example: Candida albicans (ATCC 10231); Enterococcus faecalis (MDR) (ATCC 51299); Escherichia coli (ATCC 11229); Pseudomonas aeruginosa (ATCC 9027); Staphylococcus aureus (ATCC 6538); Staphylococcus epidermidis (ATCC 12228); and Streptococcus pyogenes Group A (ATCC 19615). These organisms were subcultured onto blood agar plates and incubated for 16-24 hours at 35±2° C. An inoculated needle or loop was touched to each of four or five well isolated colonies of the same morphological type, and the inoculum inoculated into 5 mL of MHB.
as §2
The broth culture was further diluted to 1:200 in MHB broth (to obtain a final concentration of 10^5 to 10^6 CFU/mL). To determine the initial concentration of the organism in the above solution, serial dilutions were performed 1:10 in MHB four times to achieve a final dilution of 10^−4. […] Following the incubation period, the colonies were counted. […]

[13] = system: HIV-1 infected promonocytic UI cell line; assay: HIV-p24 release from TNF-α stimulated UI cells (ELISA); format: cell-based; settings: 48 hr
[14] = turbidity after 16-20 hours at 35±2° C.

Compound: CC(=O)N[C@@H](CSSC[C@H](NC(C)=O)C(=O)N[C@@H](CCCCN)C(=O)N1CCC[C@H]1C(=O)N[C@H](C(N)=O)C(C)C)C(=O)N[C@@H](CCCCN)C(=O)N1CCC[C@H]1C(=O)N[C@H](C(N)=O)C(C)C [KPV dimer, Val-Pro-Lys-AcCys-s-s-CysAc-Lys-Pro-Val] (I: Ac-CKPV-NH2 / II: Ac-CKPV-NH2; disulfide I:1-II:1)
- negative side effects [1]: without negative side effects
- safety and tolerability [2]: remarkable safety of and tolerability

Compound: Met-Glu-His-Phe-Arg-Trp-Gly (EHFRWG; listed as Homo sapiens) [α-MSH [4-10], reference compound]
- inhibition of C. albicans CFU [3]: approximately 50%

Compound: HFRWGKPV (listed as Homo sapiens) [α-MSH [6-13]]
- reduction of C. albicans viability in comparison with fluconazole [3]: most effective

Compound: Lysine-Proline-Valine [KPV]
- urokinase-enhanced S. aureus colony formation [4]: significantly inhibited the enhancing effect of urokinase; also recorded: significantly inhibited this urokinase-enhancing effect
- S. aureus colony formation (CFU) [5]: inhibited S. aureus colony formation
- reduction of C. albicans viability in comparison with fluconazole [3]: most effective
- effectiveness against the organism (in words) [6]: effective
- effectiveness against the organism (in words) [7]: effective
- reduction of spliced and unspliced HIV-1 RNA [8]: approximately 50%

Compound: ACTH (1-39): adrenocorticotropic hormone (SYSMEHFRWGKPVGKKRRPVKVYPAKEDDEASEAFPLEF; listed as Homo sapiens) [reference compound]
- reduction of C. albicans viability in comparison with fluconazole [3]: did not reduce C. albicans viability

Compound: [dK11] α-MSH (11-13)
- anti-inflammatory potency relative to L-form tripeptide α-MSH 11-13 [9]: same general potency as the L-form

Compound: 10-13 sequence: α-MSH fragment formed by addition of glycine to α-MSH (11-13) (GKPV; ends and bridges not checked; UniProt P01189 147-150, looked up, fragment)
- antipyretic potency relative to α-MSH (11-13) [10]: slightly decreased potency

Compound: ACTH fragment (18-39): ACTH fragment (18-39) (PVKVYPAKEDDEASEAFPLEF; listed as Homo sapiens) [reference compound]
- reduction of C. albicans viability in comparison with fluconazole [3]: did not reduce C. albicans viability

Compound: SYSMEHdFRWGKPV (SYSMEH[dF]RWGKPV; ends and bridges not checked) [Phe7]
- minimal effective concentration that completely inhibited growth [11]: 10^−3 M
- effectiveness against the organism (in words) [6]: effective
- minimal effective concentration that completely inhibited growth [6, 14]: 10^−3 M
- effectiveness against the organism (in words) [7]: effective
- minimal effective concentration that completely inhibited growth [7, 14]: 10^−4 M
- effectiveness against the organism (in words) [12]: very effective
- minimal effective concentration that completely inhibited growth [12, 14]: 10^−4 M

Compound: SYSMEHFRWGKPV [α-MSH [1-13]]
- urokinase-enhanced S. aureus colony formation [4]: significantly inhibited this urokinase-enhancing effect
- urokinase-enhanced S. aureus colony formation ([4]; listed as α-MSH): significantly inhibited the enhancing effect of urokinase
- S. aureus colony formation (CFU) [5]: inhibited S. aureus colony formation
- reduction of C. albicans viability in comparison with fluconazole [3]: most effective
- inhibition of p24 release ([13]; 10^−5 M, TNF-α (10 ng/mL) stimulated UI cells): 52.7%
- p24 release from TNF-α stimulated UI cells (in words) ([13]; 10^−13 to 10^−4 M): significantly inhibited p24 release

Compound: [Nle4 dPhe7]α-MSH [NDP]
- minimal effective concentration that completely inhibited growth [11]: 10^−3 M
- potency in reducing fever relative to the parent peptide ([10]; Holdeman and Lipton 1985): approximately ten times more potent than the parent peptide

Compound: 8-13 sequence: α-MSH fragment 8-13 (RWGKPV; ends and bridges not checked; UniProt P01189 145-150, looked up, fragment)
- antipyretic potency relative to α-MSH (11-13) [10]: greater than that of the 11-13 sequence

Compound: 9-13 sequence: α-MSH fragment 9-13 (WGKPV; ends and bridges not checked; UniProt P01189 146-150, looked up, fragment)
- antipyretic potency relative to α-MSH (11-13) [10]: almost devoid of activity
